From patent publication US10214502B2, “Method of inhibiting apolipoprotein-E expression while increasing expression of at least one of LDL-receptor protein or AbcA1 protein comprising administering a small compound” (California State University, Fresno, priority 2016, dated 2019)
Entries after “also recorded” stand apart in the source; their conditions may differ.

Tests used:
apoE3 = experiment: ELISA of apoE3 levels in conditioned media of compound-treated mouse cortical astrocyte cells; type: cell-based; settings: 10 μM compound, 24 hours, normalized to cell protein, relative to DMSO treated cells
Protocol: ApoE inhibition can be readily determined by any one of several assays and techniques known to those of ordinary skill in the art, including the enzyme-linked immunosorbant assay (ELISA). In the experimental results shown in Table 2 and FIG. 5, the ELISA assay was carried out on cortical astrocyte cells from mice. Astrocyte cells produce apoE, LDLR and AbcA1 proteins.
The experiments involved treating mouse cortical astrocyte cells with the claimed compounds at 10 μM concentration for an incubation time of 24 hrs. DMSO solvent was used as a negative control, because the compounds were dissolved in DMSO when applied to the cells.
The ELISA technique involves immobilizing an apoE-specific capture antibody to a 96-well plate, addition of sample (conditioned medium from mouse cortical astrocyte cells treated with the compound for 24 hours), and detection of the bound apoE using a second apoE-specific biotinylated antibody and streptavidin-HRP.
The Mabtech ELISA kit detects the presence of the three apoE isoforms: apoE2, apoE3, and apoE4.
To obtain the data shown in Table 2 and FIG. 5, the mouse cortical astrocyte cells were maintained in DMEM medium (Invitrogen) supplemented with 10 mM HEPES, 1 mM sodium pyruvate, 4.5 g/L glucose, 1% penicillin/streptomycin, and 10% fetal bovine growth serum (Invitrogen) at 37° C., with 5% CO2.
The cells (6×10^4 cells/24-well plate) were grown for 1 day in RPMI, followed by a 24 hour equilibration in serum-free Opti-MEM (Life Technologies). Treatments were carried out in triplicate with […] of fresh Opti-MEM containing 10 μM of compound or vehicle (0.1% DMSO) for 24 hours. […] ApoE concentration in the sample was calculated based on a standard curve derived using known amounts of purified apoE (from Biodesign).
The protein levels in the cells in the 24-well plates were measured using BCA Protein Assay Kit (from Pierce) and used to normalize the data. […] Sample apoE3 concentrations were represented relative to the DMSO treated cells.
The bars in FIG. 5 reflect the respective mean level apoE3 in the media for each compound with an indication of one […].

LDLR = experiment: SDS-PAGE/Western blot of LDLR expression in E3 astrocyte cells; type: cell-based, mouse; settings: 10 μM, 24 hrs, Western blot, FIGS. 6 and 7
Protocol: Experiments were set up to test whether the claimed compounds increase LDLR expression in cortical astrocyte cells. The experiments involved treating mouse cortical astrocyte cells (E3 astrocyte cells) with the claimed compounds at 10 μM concentration for an incubation time of 24 hrs. DMSO solvent was used as a negative control, because the compounds were dissolved in DMSO when applied to the cells.
(§1) Western blot protocol and analysis was used to determine the LDLR levels in the E3 astrocyte cells. The western blot, otherwise known as a protein immunoblot, is a widely used analytical technique used to detect specific proteins in a cell culture or tissue sample. It uses gel electrophoresis to separate proteins by 3-D structure or denatured proteins by the length of the polypeptide. The proteins are then transferred to a membrane (typically nitrocellulose or PVDF), where they are stained with antibodies specific to the target protein. […] FIGS. 6 and 7 show gel images showing the effects the claimed compounds have on the target proteins. The protein bands show the presence and amount of each target protein present in the media from treated cells (compound numbers shown in the column headers).
(§2) In this case, after the 24-hour culture period, the treated cell media from cells treated with each respective compound were run by electrophoresis on polyacrylamide gel containing sodium dodecyl sulfate (SDS). The proteins from the SDS-PAGE process were then transferred to a nitrocellulose […] and stained.
(§3) FIGS. 6 and 7 show the presence of the following proteins in mouse E3 astrocyte cells: AbcA1, LDLR, ApoE3, and GAPDH. The GAPDH protein serves as the loading control protein for the western blot analysis. For each of the claimed compounds, FIGS. 6 and 7 show three samples run to determine the presence and amount of each indicated protein. The three samples for each treatment compound are indicated by the line under the compound number—the line stretches across three columns of protein bands.
(§4) The E3 astrocyte cells (1.6×10^4 cells/96-well plate) were grown for 1 day in RPMI, followed by a 24 hour equilibration in serum-free Opti-MEM (Life Technologies). Treatments were carried out in triplicate with […] of fresh Opti-MEM containing 10 μM of compound or vehicle (0.1% DMSO) for 24 hours. After the incubation time, the cellular media was collected as samples.
(§5) The collected samples were prepared for SDS-PAGE and western blot analysis by centrifuging and then extracting the protein by TCA-precipitation. The extracted protein was then resuspended in a Tris buffer.
(§6) After incubation and collection, the samples were run on a SDS-polyacrylamide gel (10% SDS). The SDS-polyacrylamide gel comprises the following:
(§7) Each sample was prepared to run on the SDS-polyacrylamide gel. About 20 μL of each sample was prepared to be run in the gel. The samples were prepared comprising the following:
(§8) The SDS-PAGE process was run with SDS-PAGE running buffer (Tris base, glycine, and 10% SDS) at 150 V until the dye front reached the bottom of the gel.
(§9) For the western blot portion of the analysis, the separated protein bands in the gel are then transferred to a nitrocellulose membrane by methods well known in the art. Following the western blot transfer, the blot is rinsed several times with dH2O to remove the salts. After blocking unreacted sites on the nitrocellulose membrane, all protein bands are stained with 0.5% Ponceau S (0.5 g Ponceau S, 1 ml Glacial HAc, 99 ml dH2O) and the target protein antibody.
(§10) The antibodies used for staining AbcA1 were obtained from Novus (NB100-2068). The antibodies used for staining LDLR were obtained from MBL International (JM-3839). The antibodies used for staining intracellular apoE were obtained from Meridian Life Science (K74180B). The antibodies used for staining GAPDH were obtained from Santa Cruz (sc-25778).

AbcA1 = experiment: SDS-PAGE/Western blot of AbcA1 expression in E3 astrocyte cells; type: cell-based, mouse; settings: 10 μM, 24 hrs, Western blot, FIGS. 6 and 7
Source text: as §1, §2, §3
AbcA1 protein plays a key role in regulating cholesterol in biological systems and therefore affects amyloid beta plaque formation. The goal of the biological screen (results shown in FIGS. 6 and 7) was to find compounds that prevent amyloid beta (Aβ) plaque formation, one of the deleterious causes of Alzheimer's Disease.
as §4, §5, §6, §7, §8, §9, §10

intracellular apoE = experiment: SDS-PAGE/Western blot of intracellular apoE levels in E3 astrocyte cells; type: cell-based, mouse; settings: 10 μM, 24 hrs, Western blot, FIGS. 6 and 7
Source text: as §1, §2
FIGS. 6 and 7 show the presence of the following proteins in mouse E3 astrocyte cells: AbcA1, LDLR, ApoE3, and GAPDH. […]
Intracellular apoE levels as measured in FIGS. 6 and 7 are the amounts of apoE inside of cells. […]

SMILES	ApoE3 Levels in Cell Media, Average of Three Tests (apoE3)	ApoE3 Levels in Cell Media, Test 1 (apoE3)	ApoE3 Levels in Cell Media, Test 2 (apoE3)	ApoE3 Levels in Cell Media, Test 3 (apoE3)	LDLR expression (amount of LDLR protein) compared to the DMSO control (LDLR)	AbcA1 expression compared to the DMSO control (AbcA1)	intracellular apoE expression/levels compared to the DMSO control (intracellular apoE)
O=S(=O)(c1ccc(-c2ccccc2)cc1)N1CCOCC1 [Compound 134]	84.75 % of the DMSO control	81.07 % of the DMSO control	90.3 % of the DMSO control	82.89 % of the DMSO control	increased	increase	–
O=S(=O)(Nc1ccc(Br)cc1)c1ccc2ccccc2c1 [Compound 103]	109.1222 % of the DMSO control	84.78 % of the DMSO control	113.1319 % of the DMSO control	129.4577 % of the DMSO control	increased	increase	–
CCCCN(CCCC)Cc1ccc2ccccc2c1 [Compound 139]	74.779 % of the DMSO control	67.21 % of the DMSO control	81.69 % of the DMSO control	75.44 % of the DMSO control	increased	decreases AbcA1 expression significantly; also recorded: decrease	–
CCN(CC)Cc1ccc2ccccc2c1 [Compound 140]	90.9673 % of the DMSO control	91.46 % of the DMSO control	97.9104 % of the DMSO control	83.54 % of the DMSO control	increased; also recorded: increasing LDLR expression slightly	increases AbcA1 expression significantly; also recorded: increase	–
O=S(=O)(NCc1ccccc1)c1cccc2ccccc12 [Compound 125]	88.78 % of the DMSO control	82.44 % of the DMSO control	91.39 % of the DMSO control	92.51 % of the DMSO control	increased	increase	–
O=C(Nc1ccccc1)c1ccc2ccccc2c1 [Compound 98]	76.25 % of the DMSO control	74.22 % of the DMSO control	79 % of the DMSO control	75.5362 % of the DMSO control	–	decrease	–
CCCCN(CCCC)S(=O)(=O)c1cccc2ccccc12 [Compound 127, naphthalene-1-sulfonic acid dibutylamide]	75.73 % of the DMSO control	75.36 % of the DMSO control	78.18 % of the DMSO control	73.66 % of the DMSO control	increased	increases	decreasing
